These results are taken from paper PMC5344920, “Drug Repurposing of the Anthelmintic Niclosamide to Treat Multidrug-Resistant Leukemia” (Frontiers in Pharmacology, 2017).

This assay deals with T1, recombinant human GS (GSH synthetase, glutathione synthetase) (Homo sapiens, UniProt P48637).
T1 construct: gene GSS; commercial recombinant protein (Abcam, Cambridge, UK), labelled on amines with BLUE-NHS dye
T1 sequence (P48637 2-474): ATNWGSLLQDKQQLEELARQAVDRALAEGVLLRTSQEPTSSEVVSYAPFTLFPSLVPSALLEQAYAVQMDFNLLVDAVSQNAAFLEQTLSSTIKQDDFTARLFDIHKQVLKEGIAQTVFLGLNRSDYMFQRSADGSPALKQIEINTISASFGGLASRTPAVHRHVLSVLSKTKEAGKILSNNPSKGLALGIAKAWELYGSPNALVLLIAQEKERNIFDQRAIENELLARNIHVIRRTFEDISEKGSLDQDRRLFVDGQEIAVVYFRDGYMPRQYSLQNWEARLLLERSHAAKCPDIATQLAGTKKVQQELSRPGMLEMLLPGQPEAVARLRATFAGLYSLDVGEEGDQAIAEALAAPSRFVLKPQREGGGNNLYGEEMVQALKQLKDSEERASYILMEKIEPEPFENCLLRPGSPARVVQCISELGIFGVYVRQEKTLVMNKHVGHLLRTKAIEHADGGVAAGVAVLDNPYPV
Put plainly: microscale thermophoresis, BLUE-NHS labelled protein. The settings on record: read-out: equilibrium binding constant. A general note: In MST a laser heats a spot of the sample, and binding alters the fluorescence response.

pKd: −log10 of the molar value.

As to `O=C(Nc1ccc([N+](=O)[O-])cc1Cl)c1cc(Cl)ccc1O` [niclosamide], the pKd is 5.25.
